Patent US6274715A, “Tricyclic erythromycin derivatives” (priority 1997, dated 2001)
Values after ≈ are worked out from the molar mass of the structure shown.

What was measured:
Assay type in all cases: cell-based
EN[…] ATCC 8043 = assay: In vitro antibacterial activity, MIC, BHI agar dilution; details: E. faecium ATCC 8043, unit assumed
Method in brief: (§1)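 MIC was read visually as the lowest drug level with no growth, a slight haze or sparsely isolated colonies relative to a compound-free growth control. Organisms were spotted at 1:100 dilution (1:10 for slow-growing strains) onto Brain Heart Infusion agar containing serial compound dilutions and incubated 20 to 24 hours at 35-37° C.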

M[…] ATCC 4698 = assay: as above; details: M. luteus ATCC 4698, unit assumed
Method in brief: as §1

M[…] ATCC 9341 = assay: as above; details: M. luteus ATCC 9341, unit assumed
Method in brief: as §1

STR[…] 508 = assay: as above; details: S. agalactiae CMX 508, unit assumed
Method in brief: as §1

[1] = system: STAPHYLOCOCCUS EPIDERMIDIS 3519; details: S. epidermidis 3519; BHI agar; unit assumed
[2] = system: STAPHYLOCOCCUS AUREUS A5177; assay: In vitro antibacterial activity, MIC, BHI agar dilution; details: S. aureus A5177, unit assumed
[3] = system: PSEUDOMONAS AERUGINOSA 5007; assay: as above; details: P. aeruginosa 5007, unit assumed
ESCHERICHIA COLI KNK 437 = details: E. coli KNK 437; BHI agar; unit assumed
PSEUDOMONAS CEPACIA 296I = assay: In vitro antibacterial activity, MIC, BHI agar dilution; details: P. cepacia 296I, unit assumed
ESCHERICHIA COLI H560 = assay: as above; details: E. coli H560, unit assumed
[4] = system: STAPHYLOCOCCUS AUREUS A-5278; assay: as above; details: S. aureus A-5278, unit assumed
[5] = system: STAPHYLOCOCCUS AUREUS CMX 553; assay: as above; details: S. aureus CMX 553, unit assumed
[6] = system: PSEUDOMONAS AERUGINOSA K799/WT; assay: as above; details: P. aeruginosa K799/WT, unit assumed
[7] = system: STAPHYLOCOCCUS AUREUS NCTC10649M; assay: as above; details: S. aureus NCTC10649M, unit assumed
[8] = system: PSEUDOMONAS AERUGINOSA BMH10; assay: as above; details: P. aeruginosa BMH10, unit assumed
[9] = system: KLEBSIELLA PNEUMONIAE ATCC 8045; assay: as above; details: K. pneumoniae ATCC 8045, unit assumed
[10] = system: PSEUDOMONAS AERUGINOSA DPHD-2862; assay: as above; details: P. aeruginosa DPHD-2862, unit assumed
[11] = system: ACINETOBACTER CALCOACETICUS CMX 669; assay: as above; details: A. calcoaceticus CMX 669, unit assumed
[12] = system: STREPTOCOCCUS PYOGENES 930; assay: as above; details: S. pyogenes 930, unit assumed
[13] = system: ENTEROBACTER AEROGENES ATCC 13048; assay: as above; details: E. aerogenes ATCC 13048, unit assumed
ESCHERICHIA COLI SS = assay: as above; details: E. coli SS, unit assumed
[14] = system: STAPHYLOCOCCUS AUREUS 1775; assay: as above; details: S. aureus 1775, unit assumed
CANDIDA ALBICANS CCH 442 = assay: as above; details: C. albicans CCH 442, unit assumed
[15] = system: STREPTOCOCCUS PYOGENES PIU 2548; assay: as above; details: S. pyogenes PIU 2548, unit assumed
[16] = system: PSEUDOMONAS AERUGINOSA DPHD-5263; assay: as above; details: P. aeruginosa DPHD-5263, unit assumed
[17] = system: STAPHYLOCOCCUS AUREUS ATCC 6538P; assay: as above; details: S. aureus ATCC 6538P, 35-37° C., 20 to 24 hours, unit assumed
[18] = system: STREPTOCOCCUS PYOGENES EES61; assay: as above; details: S. pyogenes EES61, unit assumed
ESCHERICHIA COLI JUHL = details: E. coli JUHL; BHI agar; unit assumed
ESCHERICHIA COLI DC-2 = assay: In vitro antibacterial activity, MIC, BHI agar dilution; details: E. coli DC-2, unit assumed
[19] = system: MYCOBACTERIUM SMEGMATIS ATCC 114; assay: as above; details: M. smegmatis ATCC 114, unit assumed
[20] = system: PSEUDOMONAS AERUGINOSA K799/61; assay: as above; details: P. aeruginosa K799/61, unit assumed
[21] = system: STAPHYLOCOCCUS AUREUS CMX 642A; assay: as above; details: S. aureus CMX 642A, unit assumed
[22] = system: STREPTOCOCCUS BOVIS A-5169; assay: as above; details: S. bovis A-5169, unit assumed
[23] = system: PROVIDENCIA STUARTII CMX 640; details: P. stuartii CMX 640; BHI agar; unit assumed

Structure (SMILES) | MIC (EN[…] ATCC 8043) [µg/mL] | MIC (M[…] ATCC 4698) [µg/mL] | MIC (M[…] ATCC 9341) [µg/mL] | MIC [1] [µg/mL] | MIC [2] [µg/mL] | MIC [3] [µg/mL] | MIC (ESCHERICHIA COLI KNK 437) [µg/mL] | MIC (PSEUDOMONAS CEPACIA 296I) [µg/mL] | MIC (ESCHERICHIA COLI H560) [µg/mL] | MIC [4] [µg/mL] | MIC [5] [µg/mL] | MIC [6] [µg/mL] | MIC [7] [µg/mL] | MIC [8] [µg/mL] | MIC [9] [µg/mL] | MIC [10] [µg/mL] | MIC [11] [µg/mL] | MIC [12] [µg/mL] | MIC [13] [µg/mL] | MIC (ESCHERICHIA COLI SS) [µg/mL] | other results
CC[C@H]1OC(=O)[C@H](C)C(=O)[C@H](C)[C@@H](O[C@@H]2O[C@H](C)C[C@H](N(C)C)[C@H]2O)[C@](C)(OC)C[C@@H](C)C2=N[C@@H]3CN(Cc4ccncc4)C[C@@H]3N3C(=O)O[C@@]1(C)[C@H]3[C@H]2C [Example 25] | 0.1 (≈ 0.13 µM) | 0.39 (≈ 0.507 µM) | 0.1 (≈ 0.13 µM) | 0.78 (≈ 1.01 µM) | 0.78 (≈ 1.01 µM) | > 100 | > 100 | > 100 | 100 (≈ 130 µM) | > 100 | 0.78 (≈ 1.01 µM) | 100 (≈ 130 µM) | 0.39 (≈ 0.507 µM) | > 100 | > 100 | > 100 | 100 (≈ 130 µM) | > 100 | > 100 | 0.78 (≈ 1.01 µM) | MIC (STR[…] 508): 0.1 µg/mL (≈ 0.13 µM); MIC [14]: > 100 µg/mL; MIC (CANDIDA ALBICANS CCH 442): > 100 µg/mL; MIC [15]: 0.78 µg/mL (≈ 1.01 µM); MIC [16]: > 100 µg/mL; MIC [17]: 0.78 µg/mL (≈ 1.01 µM); MIC [18]: 0.05 µg/mL (≈ 0.0649 µM); MIC (ESCHERICHIA COLI JUHL): > 100 µg/mL; MIC (ESCHERICHIA COLI DC-2): > 100 µg/mL; MIC [19]: 3.1 µg/mL (≈ 4.03 µM); MIC [20]: 0.78 µg/mL (≈ 1.01 µM); MIC [21]: 0.78 µg/mL (≈ 1.01 µM); MIC [22]: 0.1 µg/mL (≈ 0.13 µM); MIC [23]: > 100 µg/mL
CC[C@H]1OC(=O)[C@H](C)C(=O)[C@H](C)[C@@H](O[C@@H]2O[C@H](C)C[C@H](N(C)C)[C@H]2O)[C@](C)(OC)C[C@@H](C)C2=NC[C@@H](COCc3ccccc3)N3C(=O)O[C@@]1(C)[C@H]3[C@H]2C [Example 37] | 0.05 (≈ 0.066 µM) | 0.2 (≈ 0.264 µM) | 0.01 (≈ 0.0132 µM) | 0.1 (≈ 0.132 µM) | 0.1 (≈ 0.132 µM) | > 100 | 25 (≈ 33 µM) | 100 (≈ 132 µM) | 25 (≈ 33 µM) | > 100 | 0.1 (≈ 0.132 µM) | > 100 | 0.1 (≈ 0.132 µM) | 50 (≈ 66 µM) | 50 (≈ 66 µM) | > 100 | 25 (≈ 33 µM) | 100 (≈ 132 µM) | 50 (≈ 66 µM) | 0.39 (≈ 0.515 µM) | MIC (STR[…] 508): 0.02 µg/mL (≈ 0.0264 µM); MIC [14]: > 100 µg/mL; MIC (CANDIDA ALBICANS CCH 442): > 100 µg/mL; MIC [15]: 0.39 µg/mL (≈ 0.515 µM); MIC [16]: > 100 µg/mL; MIC [17]: 0.1 µg/mL (≈ 0.132 µM); MIC [18]: ≤ 0.005 µg/mL; MIC (ESCHERICHIA COLI JUHL): 50 µg/mL (≈ 66 µM); MIC (ESCHERICHIA COLI DC-2): 25 µg/mL (≈ 33 µM); MIC [19]: 0.39 µg/mL (≈ 0.515 µM); MIC [20]: 0.78 µg/mL (≈ 1.03 µM); MIC [21]: 0.1 µg/mL (≈ 0.132 µM); MIC [22]: ≤ 0.005 µg/mL; MIC [23]: > 100 µg/mL
CC[C@H]1OC(=O)[C@H](C)C(=O)[C@H](C)[C@@H](O[C@@H]2O[C@H](C)C[C@H](N(C)C)[C@H]2O)[C@](C)(OC)C[C@@H](C)C2=NC3CN(CCOc4ccccc4)CC3N3C(=O)O[C@@]1(C)[C@H]3[C@H]2C (some centres unmarked) [Example 128] | 0.1 (≈ 0.125 µM) | 0.39 (≈ 0.488 µM) | 0.05 (≈ 0.0626 µM) | 0.39 (≈ 0.488 µM) | 0.39 (≈ 0.488 µM) | > 100 | > 100 | > 100 | > 100 | > 100 | 0.39 (≈ 0.488 µM) | > 100 | 0.39 (≈ 0.488 µM) | > 100 | > 100 | > 100 | 100 (≈ 125 µM) | > 100 | > 100 | 1.56 (≈ 1.95 µM) | MIC [14]: > 100 µg/mL; MIC (CANDIDA ALBICANS CCH 442): > 100 µg/mL; MIC [15]: 0.78 µg/mL (≈ 0.976 µM); MIC [16]: > 100 µg/mL; MIC [17]: 0.39 µg/mL (≈ 0.488 µM); MIC [18]: ≤ 0.005 µg/mL; MIC (ESCHERICHIA COLI JUHL): 100 µg/mL (≈ 125 µM); MIC (ESCHERICHIA COLI DC-2): > 100 µg/mL; MIC [19]: 1.56 µg/mL (≈ 1.95 µM); MIC [20]: 6.2 µg/mL (≈ 7.76 µM); MIC [21]: 0.39 µg/mL (≈ 0.488 µM); MIC [22]: ≤ 0.005 µg/mL; MIC [23]: > 100 µg/mL
